# According to patent publication US8003096B2, “Means and methods for the recruitment and identification of stem cells” (Vlaams Interuniversitair Instituut voor Biotechnologie VZW, priority 2003, dated 2011):
# Key:
# plasmin = assay: Plasmin activity in BM plasma, chromogenic assay; assay type: in vivo, mouse; conditions: WT mice
# Protocol: (§1) To study the role of the plasminogen proteinase system with its plasminogen activators tPA and uPA, and active plasmin in stem/progenitor cell mobilization, mice lacking plasminogen (Plg^−/−), tPA (tPA^−/−), uPA (uPA^−/−) and both activators (tPA^−/−uPA^−/−) were used.^(17, 18) Age- and sex-matched mice were kept in IVC cages. Mobilization was induced either via a single sublethal injection i.v. of the myeloablative agent 5-fluorouracil (5-FU, 200-250 mg/kg), or via administration s.c. of recombinant human G-CSF (Filgrastim, Amgen, 200 μg/kg/d) for five consecutive days.^(12) Peripheral blood (PB) samples were obtained by retro-orbital bleeding under light anesthesia. Full blood counts were determined on the Abbott Cell Dyn 1300 hemocytometer. The number of mobilized hematopoietic progenitor cells (HPCs) in the circulation was determined via methylcellulose-based CFU-C assays (MethoCult, Stem Cell Technologies), per 10^5 peripheral blood mononuclear cells (PB MNCs).^(12) The number of mobilized hematopoietic stem cells (HSCs) in the circulation was quantified via splenic colony-forming assays (CFU-S), and evaluated for long-term engraftment via transplantation into lethally irradiated syngeneic wild-type recipients (9.5 Gy total body irradiation). […]
# [1] = assay type: in vivo, mouse
# Protocol: as §1
# Wild-type mice and mice lacking Plg, both tPA and uPA, tPA, uPA, uPAR, PAI-1, α2AP, MMP-2 (kind gift from S. Itohara), MMP-3 (kind gift from J. Mudgett), MMP-9, MMP-12 (kind gift from S. Shapiro), and TIMP-1 (obtained by courtesy of P. Soloway) were used, and housed in barrier cages (individually ventilated) (Heymans et al. (1999), Nat. Med. 5:1135-42). […] Peripheral blood was repetitively sampled by retro-orbital puncture under light anesthesia, and full blood counts (EDTA buffered) were determined on a hemocytometer (Abbott Cell Dyn 1300). Peripheral blood smears were stained using Giemsa-May-Grunwald and at least 200 cells were analyzed. […]
structure (smiles),measurement,setting,value
"O=c1[nH]cc(F)c(=O)[nH]1 [5-FU, 5-fluorouracil]",plasmin activity in BM plasma,"plasmin; after single i.v. bolus, N=4",75±14 U
same,elevation of plasmin activity in BM plasma above baseline,plasmin; single i.v. bolus,five-fold
same,mice that died,"[1]; Plg−/− or tPA−/−uPA−/− mice, sublethal dose",up to 75%
same,mice that did not survive,"[1]; WT mice, sublethal dose",10%
same,"time to recovery from drop in WBC, RBC and platelet counts","[1]; mouse, in vivo",2.5-3 weeks
